Test results as given in patent US11214803B2, “Modulators of YAP1 expression” (Ionis Pharmaceuticals, Inc., priority 2019, dated 2022).
Marks after values point to notes of the source that are not given here. Strand notation (5' to 3'): a small letter for the sugar, then the base; units joined by * are phosphorothioate-linked, units joined directly phosphodiester-linked; [ ] holds rarer units or linkages, { } end groups; capitals alone tell only the bases. k = constrained ethyl (cEt); [5mC] = 5-methylcytosine; d = 2'-deoxy (DNA)

What follows are substances tested on Yap1 mRNA (assay: Antisense inhibition of human Yap1 in A-431 cells by cEt gapmers, single dose (Example 2, RTS4814)). Conditions: A-431 cells, 5,000 cells per well, free uptake, 2,000 nM modified oligonucleotide, approx. 48 hours, RTS4814, normalized to RIBOGREEN; Table 4; asterisk (*) = targets amplicon region of primer probe set.
Format: cell-based
Summary of the method: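 A-431 cells (5,000/well) received 2,000 nM oligonucleotide by free uptake for about 48 h. Yap1 mRNA was then quantified by RT-qPCR with primer probe set RTS4814, normalized to RIBOGREEN total RNA, and reported as % of untreated control; asterisked values mark oligos inside the amplicon.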

Going from “716445 (kG*kT*kA*dT*dG*dT*dG*dG*d[5mC]*dA*dA*dT*dA*kA*kT*kT; antisense) [Compound 716445]” to “716400 (kT*kA*kA*d[5mC]*dT*d[5mC]*d[5mC]*dT*dG*dA*d[5mC]*dA*dT*kT*kT*kT; antisense) [Compound 716400]”, the “YAP1 (% UTC)” value rises from 28 % UTC to 106 % UTC.

Going from “716544 (antisense kT*kA*k[5mC]*dT*dT*dA*dA*d[5mC]*dA*d[5mC]*dA*dG*d[5mC]*kA*kA*k[5mC]) [Compound 716544]” to “716514 (antisense kG*k[5mC]*kT*dG*dA*dT*dA*dT*dA*dT*dA*dA*dG*kA*kT*kA) [Compound 716514]”, the “YAP1 (% UTC)” value falls from 71 % UTC to 68 % UTC.

“716472 (kG*kT*k[5mC]*dA*dT*dG*d[5mC]*dA*d[5mC]*dA*dT*dT*dA*kT*kG*kA; antisense) [Compound 716472]” was tested, and the “YAP1 (% UTC)” value was 78 % UTC.

Same assay, conditions: Table 5; A-431 cells, 5,000 cells per well, free uptake, 2,000 nM modified oligonucleotide, approx. 48 hours; RTS4814; normalized to RIBOGREEN; Yap1 mRNA relative to untreated control cells

Compared with “716386 (kA*kT*kT*dT*d[5mC]*dT*d[5mC]*d[5mC]*dA*dT*d[5mC]*d[5mC]*dT*kG*kA*kG; antisense) [Compound 716386]”, “716476 (kG*kA*kA*d[5mC]*dT*dA*d[5mC]*dA*dA*dA*d[5mC]*dT*dA*kG*kA*kA; antisense) [Compound 716476]” is higher in “YAP1 (% UTC)” value: 60 % UTC for the first, 91 % UTC for the second.

Going from “716482 (k[5mC]*kT*kA*dT*d[5mC]*d[5mC]*dA*dG*dG*dG*dT*d[5mC]*dA*kA*kT*kT; antisense) [Compound 716482]” to “716473 (k[5mC]*kT*kA*dT*dA*dA*dA*dG*d[5mC]*dT*dT*dA*dT*kT*kT*k[5mC]; antisense) [Compound 716473]”, the “YAP1 (% UTC)” value rises from 83 % UTC to 104 % UTC.

Going from “716560 (kT*kA*kA*d[5mC]*dA*dA*dT*dT*dT*dA*dT*dG*dT*kA*kA*kG; antisense) [Compound 716560]” to “716410 (kG*kT*kA*dT*d[5mC]*dA*d[5mC]*d[5mC]*dT*dG*dT*dA*dT*k[5mC]*k[5mC]*kA; antisense) [Compound 716410]”, the “YAP1 (% UTC)” value falls from 107 % UTC to 52 % UTC.

Same assay, conditions: Table 6; A-431 cells, 5,000 cells per well, free uptake, 2,000 nM modified oligonucleotide, approx. 48 hours; RTS4814; normalized to RIBOGREEN; Yap1 mRNA relative to untreated control cells

Going from “716477 (kG*kT*kG*dT*dT*d[5mC]*dA*dT*dT*dA*d[5mC]*dA*dA*kA*kT*kG; antisense) [Compound 716477]” to “716435 (kA*k[5mC]*kA*dA*d[5mC]*dT*dG*dT*dT*dG*dA*dA*d[5mC]*kA*kA*kA; antisense) [Compound 716435]”, the “YAP1 (% UTC)” value rises from 42 % UTC to 45 % UTC.

Same assay, conditions: Table 18; A-431 cells, 5,000 cells per well, free uptake, 2,000 nM modified oligonucleotide, approx. 48 hours; RTS4814; normalized to RIBOGREEN; Yap1 mRNA as percent of untreated control

First: 1075332 (kA*kG*k[5mC]*dG*dG*dG*dT*dT*dT*dA*dG*dA*dA*kT*kG*k[5mC]; antisense) [Compound 1075332]
Second: 1076036 (k[5mC]*kG*kT*dA*dA*dT*dT*dA*dG*dA*dA*dA*d[5mC]*kT*kT*kG; antisense) [Compound 1076036]
The “YAP1 (% UTC)” value of the first is higher: 66 % UTC for the first, 19 % UTC for the second.

Same assay, conditions: Table 19; A-431 cells, 5,000 cells per well, free uptake, 2,000 nM modified oligonucleotide, approx. 48 hours; RTS4814; normalized to RIBOGREEN; Yap1 mRNA as percent of untreated control

With “1074437 (kA*k[5mC]*kA*dT*dG*dA*dA*dG*d[5mC]*dA*dT*d[5mC]*dT*kG*kA*k[5mC]; antisense) [Compound 1074437]” the “YAP1 (% UTC)” value was 4* % UTC.

In the case of “1074661 (antisense kG*kA*kA*dT*dT*dT*d[5mC]*dA*dT*dT*dA*d[5mC]*dT*kA*k[5mC]*kT) [Compound 1074661]”, the “YAP1 (% UTC)” value is reported as 36 % UTC.

Same assay, conditions: Table 20; Yap1 mRNA, percent of untreated control; 3-10-3 cEt gapmers targeting SEQ ID NO.: 1 and 2

Compared with “1076550 (antisense kT*kA*k[5mC]*d[5mC]*dA*dA*d[5mC]*d[5mC]*dT*dG*dT*dA*dT*k[5mC]*k[5mC]*kA) [Compound 1076550]”, “1075718 (k[5mC]*k[5mC]*kA*d[5mC]*dT*dA*dA*dA*dA*d[5mC]*d[5mC]*dA*dA*kG*kT*kT; antisense) [Compound 1075718]” is lower in “YAP1 (% UTC)” value: 61 % UTC for the first, 48 % UTC for the second.

Same assay, conditions: Table 21; Yap1 mRNA, percent of untreated control; 3-10-3 cEt gapmers targeting SEQ ID NO.: 1 and 2

With “1074119 (antisense kG*k[5mC]*kA*d[5mC]*dT*d[5mC]*dG*dG*dA*d[5mC]*d[5mC]*dT*dG*k[5mC]*kG*kG) [Compound 1074119]” the “YAP1 (% UTC)” value was 71 % UTC.

Same assay, conditions: Table 22; Yap1 mRNA as percent of untreated control; 3-10-3 cEt gapmers; single dose

First: 1074216 (antisense kG*kA*kT*dT*dT*dG*dG*dG*d[5mC]*dT*d[5mC]*d[5mC]*dG*kG*k[5mC]*kG) [Compound 1074216]
Second: 1075496 (antisense kT*kT*kA*dT*dA*dT*dA*dA*dT*dG*d[5mC]*dA*dG*kG*k[5mC]*kT) [Compound 1075496]
The “YAP1 (% UTC)” value of the first is higher: 58 % UTC for the first, 22 % UTC for the second.

In the case of “1074504 (kT*k[5mC]*kG*dA*dG*dA*dT*dT*dT*dA*dA*dA*dT*kA*kA*kG; antisense) [Compound 1074504]”, the “YAP1 (% UTC)” value is reported as 76 % UTC.

Same assay, conditions: Table 23; Yap1 mRNA as percent of untreated control; 3-10-3 cEt gapmers; single dose

First: 1076073 (k[5mC]*kT*kT*dT*dA*dA*dG*dG*dT*d[5mC]*dT*dA*dG*kT*kT*kA; antisense) [Compound 1076073]
Second: 1074185 (antisense kG*kG*k[5mC]*d[5mC]*dG*dG*dT*dT*dG*dA*dG*dG*d[5mC]*kG*kG*k[5mC]) [Compound 1074185]
The “YAP1 (% UTC)” value of the first is lower: 47 % UTC for the first, 91 % UTC for the second.

Compared with “1074409 (antisense kG*kG*kA*dT*dT*dA*dA*dA*dG*dT*dA*dT*d[5mC]*kT*kT*kG) [Compound 1074409]”, “1075305 (kA*kA*kA*d[5mC]*dG*dA*dA*dA*d[5mC]*dA*d[5mC]*dG*dG*kG*kT*kA; antisense) [Compound 1075305]” is higher in “YAP1 (% UTC)” value: 6 % UTC for the first, 66 % UTC for the second.

In the case of “1074153 (antisense k[5mC]*kA*k[5mC]*dG*dG*dG*d[5mC]*d[5mC]*dG*dA*dG*dG*dT*kG*kG*kA) [Compound 1074153]”, the “YAP1 (% UTC)” value is reported as 78 % UTC.

Same assay, conditions: Table 24; Yap1 mRNA as percent of untreated control; 3-10-3 cEt gapmers targeting SEQ ID NO.: 1, and 2

Compared with “1076010 (kT*kA*kT*dA*dA*dA*d[5mC]*dA*dA*dT*dA*dG*d[5mC]*kG*kA*kA; antisense) [Compound 1076010]”, “1074570 (antisense kA*kT*kG*dA*dA*d[5mC]*d[5mC]*dT*dA*d[5mC]*dT*d[5mC]*dA*k[5mC]*kT*kG) [Compound 1074570]” is lower in “YAP1 (% UTC)” value: 44 % UTC for the first, 12 % UTC for the second.

Same assay, conditions: Table 25; Yap1 mRNA as percent of untreated control; 3-10-3 cEt gapmers targeting SEQ ID NO.: 1, and 2

Compared with “1075883 (kA*k[5mC]*kT*dA*dA*dA*dA*d[5mC]*d[5mC]*dA*dT*dT*dT*kG*k[5mC]*k[5mC]; antisense) [Compound 1075883]”, “1074667 (antisense k[5mC]*k[5mC]*k[5mC]*dA*dA*d[5mC]*dA*dA*d[5mC]*dA*dT*dG*d[5mC]*kT*kA*kT) [Compound 1074667]” is lower in “YAP1 (% UTC)” value: 20 % UTC for the first, 15 % UTC for the second.

With “1074731 (antisense k[5mC]*kA*kG*dG*dT*dA*dT*d[5mC]*dA*d[5mC]*dA*dG*dT*kA*k[5mC]*kT) [Compound 1074731]” the “YAP1 (% UTC)” value was 19 % UTC.

Same assay, conditions: Table 32; Yap1 mRNA, percent of untreated control; 3-10-3 cEt gapmers targeting SEQ ID NO.: 1, and 2

First: 1075954 (kA*kT*kT*dT*dA*dA*dG*dG*d[5mC]*dT*dG*dT*dG*kT*kT*k[5mC]; antisense) [compound 1075954]
Second: 1075826 (kT*kA*kG*dG*dG*dA*dA*dA*dA*d[5mC]*d[5mC]*dA*dT*kA*kG*k[5mC]; antisense) [compound 1075826]
The “YAP1 (% UTC)” value of the first is higher: 50 % UTC for the first, 23 % UTC for the second.

Going from “1074162 (kA*kG*kG*d[5mC]*dG*dA*dG*d[5mC]*dG*dA*dG*dG*dG*k[5mC]*kT*kA; antisense) [compound 1074162]” to “1075282 (antisense kG*kA*kA*dA*dA*dA*dT*dG*dA*dG*d[5mC]*d[5mC]*d[5mC]*kG*kG*kT) [compound 1075282]”, the “YAP1 (% UTC)” value rises from 101 % UTC to 103 % UTC.

Same assay, conditions: Table 33; Yap1 mRNA, percent of untreated control; 3-10-3 cEt gapmers targeting SEQ ID NO.: 1, and 2

First: 1076339 (antisense k[5mC]*kA*kG*d[5mC]*dA*dA*dT*dA*d[5mC]*dT*dG*dT*dG*kG*kG*k[5mC]) [compound 1076339]
Second: 1075283 (antisense k[5mC]*kG*kA*dA*dT*dA*dT*dA*dG*dA*dA*dA*dA*kA*kT*kG) [compound 1075283]
The “YAP1 (% UTC)” value of the first is lower: 13 % UTC for the first, 90 % UTC for the second.

Same assay, conditions: Yap1 mRNA as percent of untreated control; A-431 cells; 3-10-3 cEt gapmers targeting SEQ ID NO.: 1, and 2; Table 30

First: 1076400 (antisense kG*kT*kT*dA*dA*dA*dA*dG*d[5mC]*d[5mC]*dG*dT*dG*kA*kA*kA) [compound 1076400]
Second: 1075888 (antisense kA*k[5mC]*kT*dT*dA*dA*dA*d[5mC]*dT*dT*dG*dA*dG*kG*kG*kA) [compound 1075888]
The “YAP1 (% UTC)” value of the first is lower: 10 % UTC for the first, 22 % UTC for the second.

Same assay, conditions: Yap1 mRNA as percent of untreated control; A-431 cells; 3-10-3 cEt gapmers targeting SEQ ID NO.: 1, and 2; Table 31

First: 1074929 (antisense kT*kA*kT*dA*d[5mC]*dA*dA*d[5mC]*dA*dG*dG*d[5mC]*d[5mC]*kT*kG*k[5mC]) [compound 1074929]
Second: 1076561 (kG*kT*kA*dT*dA*d[5mC]*d[5mC]*dA*dA*dG*d[5mC]*dT*dA*k[5mC]*kT*k[5mC]; antisense) [compound 1076561]
The “YAP1 (% UTC)” value of the first is higher: 79 % UTC for the first, 22 % UTC for the second.

Compared with “1076177 (k[5mC]*kT*kT*dT*dA*dT*dT*dT*d[5mC]*d[5mC]*d[5mC]*dA*d[5mC]*k[5mC]*k[5mC]*kG; antisense) [compound 1076177]”, “1076497 (kA*kA*kA*dG*dA*dA*dT*dA*d[5mC]*d[5mC]*dA*dA*d[5mC]*k[5mC]*kT*kG; antisense) [compound 1076497]” is higher in “YAP1 (% UTC)” value: 37 % UTC for the first, 72 % UTC for the second.
